Experimental data from patent publication US20210008070A1, “TARGETING MINIMAL RESIDUAL DISEASE IN CANCER WITH CD36 ANTAGONISTS” (VIB VZW, priority 2018, published 2021).

Experiments:
[1] = test system: GFRA2-positive MEL006 cells; assay: FACS of GFRA2-positive cells in MEL006 cultures
Protocol: Cells were resuspended in FACS sorting buffer (culture medium supplied with 1% EDTA 100 mM).

[2] = test system: MM52 cells; assay: Colony assay / Cell Titer Glo in short-term melanoma culture MM52; type: cell-based, human
Protocol: D) Colony assay performed over 7 days.
E) and Cell Titer Glo assay performed after 6 days after incubation of the short culture melanoma line MM052 with MEK inhibitor trametinib (TRA; […]; 1 uM), FAK inhibitor PF-562271 (1 uM) and RXRG antagonist HX531 (2 uM)
Cells were grown to near confluency on 12well plates and treated with the indicated drug combinations for the indicated time period. Cells were washed once with PBS, stained with crystal violet (1% crystal violet w/v, 35% methanol v/v) for 15 min, washed with PBS and destained in tap water.
1.15. Cell Titer Glo 2500 cells were plated onto a 96 well plate and treated with the indicated drug combinations for the indicated time period. Cell Titer Glo assay was performed according to the manufacturer's instruction (Promega) and luminescence was measured on a VictorX3 (Perkin Elmer).

[3] = test system: RAR receptors; conditions: cited from earlier work

SMILES: CN(c1ncccc1CNc1nc(Nc2ccc3c(c2)CC(=O)N3)ncc1C(F)(F)F)S(C)(=O)=O [PF-562271]
- drug-dependent emergence of the GFRA2-high cell population ([1]; added to DT): diminished the drug-dependent emergence of the GFRA2-high cell population in a dose-dependent manner

SMILES: C=C(c1ccc(C(=O)O)cc1)c1cc2c(cc1C)C(C)(C)CCC2(C)C [bexarotene]
- long-term growth inhibition ([2]; alone): did not induce measurable long-term growth inhibition
- sensitivity to a combination of trametinib/FAK-inhibitors ([2]; bexarotene added): increased the sensitivity
- sensitivity of MM52 cells to trametinib ([2]; bexarotene at concentrations as low as 10 nM): significantly decreased the sensitivity
- cells with cell death ([2]; bexarotene with trametinib/FAK-inhibitors, after 3 days of treatment): ~100%

SMILES: CC1(C)CCC(C)(C)c2cc(C3(c4ccc(C(=O)O)cc4)OCCO3)ccc21 [SR 11237]
- RAR activity [3]: devoid of any RAR activity

SMILES: CN1c2ccc([N+](=O)[O-])cc2N=C(c2ccc(C(=O)O)cc2)c2cc3c(cc21)C(C)(C)CCC3(C)C [HX531]
- sensitivity of MM52 cells to trametinib ([2]; HX531 plus trametinib): sensitized these cells to trametinib
- drug-dependent induction of GFRA2-positive cells ([1]; with IC50 concentrations of BRAF and MEK-inhibitors): completely inhibited emergence
